Laboratory results: patent US5541178A, “Carbapenem antibiotic compounds” (Zeneca Limited, priority 1991, dated 1996)
Values after ≈ are worked out from the molar mass of the structure shown. Where a name gives a salt, the structure may show the parent alone. Read-outs that look alike come from different tables or passages of the source.

How the values were obtained:
Type in all cases: cell-based
B. fragilis AMP-R = test: MIC by agar-dilution technique, Diagnostic Sensitivity Test; details: Bacteroides fragilis, inoculum 10^4 CFU/spot
From the text: (§1) The pharmaceutically acceptable carbapenem compounds of the present invention are useful antibacterial agents having a broad spectrum of activity in vitro against standard laboratory microorganisms, both Gram-negative and Gram-positive, which are used to screen for activity against pathogenic bacteria. The antibacterial spectrum and potency of a particular compound may be determined in a standard test system. In particular the carbapenems of the present invention show good stability to beta-lactamases and in general particularly good pharmacokinetics, especially as regards half life. In general compounds show significant improvement over imipenem.
(§2) The following results were obtained for representative compounds on a standard in vitro test system using Diagnostic Sensitivity Test. The antibacterial activity is described in terms of the minimum inhibitory concentration (MIC) determined by the agar-dilution technique with an inoculum size of 10^4 CFU/spot.

S. aureus Oxford = test: as above; details: Staphylococcus aureus, inoculum 10^4 CFU/spot
From the text: as §1, §2

D Morganii DR 062 = test: as above
From the text: as §1, §2

E. coli DCO = test: as above; details: Escherichia coli, inoculum 10^4 CFU/spot
From the text: as §1, §2

B. fragilis AMP-S = test: as above; details: Bacteroides fragilis, inoculum 10^4 CFU/spot
From the text: as §1, §2

[1] = test system: Enterobacter cloacae P99+; test: as above
From the text: as §1, §2

P. morganii I + 001 = test: as above; details: Morganella morganii
From the text: as §1, §2

[2] = test system: Enterobacter cloacae P99-; test: microbe, parasite or virus in culture
From the text: as §1, §2

[3] = D Morganii DR 062, agar-dilution, inoculum 10^4 CFU/spot, read-out: MIC
[4] = P. morganii I + 001, agar-dilution, inoculum 10^4 CFU/spot, read-out: MIC

C[C@@H](O)[C@H]1C(=O)N2C(C(=O)O)=C(S[C@@H]3CN[C@H](C(=O)Nc4cccc(C(=O)O)c4C(=O)O)C3)[C@H](C)[C@H]12 [Example 4, (1R,5S,6S,8R,2'S,4'S)-2-(2-(2,3-Dicarboxyphenylcarbamoyl)pyrrolidin-4-ylthio)-6-(1-hydroxyethyl)-1-methylcarbapenem-3-carboxylic acid]
MIC (B. fragilis AMP-R): 0.5 µg/mL (≈ 0.962 µM)
MIC (S. aureus Oxford): 0.25 µg/mL (≈ 0.481 µM)
MIC (D Morganii DR 062): 0.03 µg/mL (≈ 0.0577 µM)
MIC (E. coli DCO): 0.02 µg/mL (≈ 0.0385 µM)
MIC (B. fragilis AMP-S): 0.13 µg/mL (≈ 0.25 µM)
MIC [1]: 1 µg/mL (≈ 1.92 µM)
MIC (P. morganii I + 001): 0.03 µg/mL (≈ 0.0577 µM)
MIC [2]: 0.01 µg/mL (≈ 0.0192 µM)

COc1ccc(NC(=O)[C@@H]2C[C@H](SC3=C(C(=O)O)N4C(=O)[C@H]([C@@H](C)O)[C@H]4[C@H]3C)CN2)c(C(=O)O)c1 [Example 31, (1R,5S,6S,8R,2'S,4'S)-2-(2-(2-Carboxy-4-methoxyphenylcarbamoylpyrrolidin-4-ylthiol)-6-(1-hydroxyethyl)-1-methylcarbapenem-3-carboxylic acid, dipotassium salt]
MIC (B. fragilis AMP-R): 0.25 µg/mL
MIC (S. aureus Oxford): 0.13 µg/mL
MIC (D Morganii DR 062; [3]): 0.06 µg/mL
MIC (E. coli DCO): 0.02 µg/mL
MIC (B. fragilis AMP-S): 0.25 µg/mL
MIC [1]: 1 µg/mL
MIC (P. morganii I + 001): 0.03 µg/mL
MIC [2]: 0.03 µg/mL

C[C@@H](O)[C@H]1C(=O)N2C(C(=O)O)=C(S[C@@H]3CN[C@H](C(=O)Nc4ccccc4C(=O)O)C3)[C@H](C)[C@H]12 [Example 5, (1R,5S,6S,8R,2'S,4'S)-2-(2-(2-Carboxyphenylcarbamoyl)pyrrolidin-4-ylthio)-6-(1-hydroxyethyl)-1-methylcarbapenem-3-carboxylic acid]
MIC (B. fragilis AMP-R): 0.25 µg/mL (≈ 0.526 µM)
MIC (S. aureus Oxford): 0.06 µg/mL (≈ 0.126 µM)
MIC (D Morganii DR 062): 0.03 µg/mL (≈ 0.0631 µM)
MIC (E. coli DCO): 0.03 µg/mL (≈ 0.0631 µM)
MIC (B. fragilis AMP-S): 0.25 µg/mL (≈ 0.526 µM)
MIC [1]: 1 µg/mL (≈ 2.1 µM)
MIC (P. morganii I + 001): 0.03 µg/mL (≈ 0.0631 µM)
MIC [2]: 0.06 µg/mL (≈ 0.126 µM)

CO/N=C(\C(=O)N[C@@H]1C(=O)N2C(C(=O)O)=C(CSc3nc(=O)c(=O)[nH]n3C)CS[C@H]12)c1csc(N)n1 [ceftriaxone, reference compound]
MIC (B. fragilis AMP-R): > 128 µg/mL
MIC (S. aureus Oxford): 2 µg/mL (≈ 3.61 µM)
MIC (D Morganii DR 062; [3]): 1 µg/mL (≈ 1.8 µM)
MIC (E. coli DCO): 0.03 µg/mL (≈ 0.0541 µM)
MIC (B. fragilis AMP-S): 2 µg/mL (≈ 3.61 µM)
MIC [1]: 32 µg/mL (≈ 57.7 µM)
MIC (P. morganii I + 001; [4]): 0.01 µg/mL
MIC [2]: 0.06 µg/mL (≈ 0.108 µM)

C[C@@H](O)[C@H]1C(=O)N2C(C(=O)O)=C(S[C@@H]3CN[C@H](C(=O)Nc4cc(C(=O)O)ccc4O)C3)[C@H](C)[C@H]12 [Example 2, (1R,5S,6S,8R,2'S,4'S)-2-(2-(5-Carboxy-2-hydroxyphenylcarbamoyl)pyrrolidin-4-ylthio)-6-(1-hydroxyethyl)-1-methylcarbapenem-3-carboxylic acid]
MIC (S. aureus Oxford): 0.13 µg/mL (≈ 0.264 µM)
MIC (D Morganii DR 062; [3]): 0.06 µg/mL (≈ 0.122 µM)
MIC (E. coli DCO): 0.03 µg/mL (≈ 0.061 µM)
MIC (B. fragilis AMP-S): 0.25 µg/mL (≈ 0.509 µM)
MIC [1]: 1 µg/mL (≈ 2.03 µM)
MIC (P. morganii I + 001; [4]): 0.06 µg/mL
MIC [2]: 0.01 µg/mL (≈ 0.0203 µM)

C[C@@H](O)[C@H]1C(=O)N2C(C(=O)O)=C(S[C@@H]3CN[C@H](C(=O)Nc4ccc(C(=O)O)cc4C(=O)O)C3)[C@H](C)[C@H]12 [Example 13, (1R,5S,6S,8R,2'S,4'S)-2-(2-(2,4-Dicarboxyphenylcarbamoyl)pyrrolidin-4-ylthio)-6-(1-hydroxyethyl)-1-methylcarbapenem-3-carboxylic acid]
MIC (B. fragilis AMP-R): 0.5 µg/mL (≈ 0.962 µM)
MIC (S. aureus Oxford): 0.25 µg/mL (≈ 0.481 µM)
MIC (D Morganii DR 062; [3]): 0.02 µg/mL (≈ 0.0385 µM)
MIC (E. coli DCO): 0.02 µg/mL (≈ 0.0385 µM)
MIC (B. fragilis AMP-S): 0.13 µg/mL (≈ 0.25 µM)
MIC [1]: 2 µg/mL (≈ 3.85 µM)
MIC (P. morganii I + 001; [4]): 0.01 µg/mL
MIC [2]: 0.03 µg/mL (≈ 0.0577 µM)

C[C@@H](O)[C@H]1C(=O)N2C(C(=O)O)=C(S[C@@H]3CN[C@H](C(=O)Nc4ccc(C(=O)O)cc4O)C3)[C@H](C)[C@H]12 [Example 1, (1R,5S,6S,8R,2'S,4'S)-2-(2-(4-Carboxy-2-hydroxyphenylcarbamoyl)pyrrolidin-4-ylthio)-6-(1-hydroxyethyl)-1-methylcarbapenem-3-carboxylic acid]
MIC (B. fragilis AMP-R): 0.5 µg/mL (≈ 1.02 µM)
MIC (S. aureus Oxford): 0.13 µg/mL (≈ 0.264 µM)
MIC (D Morganii DR 062; [3]): 0.02 µg/mL (≈ 0.0407 µM)
MIC (E. coli DCO): 0.01 µg/mL (≈ 0.0203 µM)
MIC (B. fragilis AMP-S): 0.25 µg/mL (≈ 0.509 µM)
MIC [1]: 0.25 µg/mL (≈ 0.509 µM)
MIC (P. morganii I + 001; [4]): 0.02 µg/mL
MIC [2]: 0.01 µg/mL (≈ 0.0203 µM)
